Values quoted from earlier work in patent publication US20070014831A1, “Biodegradable occlusive device with moisture memory” (priority 2005, published 2007).

Legend:
[1] = J Biomater Sci Polymer Edn 1999;10:63-78
[2] = system: tissue culture
[3] = in vivo

glutaraldehyde concentration used to crosslink materials above which a persistent foreign-body reaction occurred [3] | Structure (SMILES) | cytotoxicity compared with glutaraldehyde [1] | concentration at which cytotoxic [2] | concentration at which cytotoxic in tissue culture ([2]; in tissue culture, as low as)
 | COC(=O)C1=CO[C@@H](O)[C@@H]2C(CO)=CC[C@H]12 [Genipin] | significantly less cytotoxic than glutaraldehyde |  | 
above 0.05% | O=CCCCC=O [glutaraldehyde] |  | 10-25 ppm | ≥ 3 ppm
